Target: T1, arylamine-N-acetyltransferase (TBNAT) (Mycobacterium tuberculosis, UniProt P9WJI5)
T1 construct: gene nat
T1 sequence (P9WJI5 1-283): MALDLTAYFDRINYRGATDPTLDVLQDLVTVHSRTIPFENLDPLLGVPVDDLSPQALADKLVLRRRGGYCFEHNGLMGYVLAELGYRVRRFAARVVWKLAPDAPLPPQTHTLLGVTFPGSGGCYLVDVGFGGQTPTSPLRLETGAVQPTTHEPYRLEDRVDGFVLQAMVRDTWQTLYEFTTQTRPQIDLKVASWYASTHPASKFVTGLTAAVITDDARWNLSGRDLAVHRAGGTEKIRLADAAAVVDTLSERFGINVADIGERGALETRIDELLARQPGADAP
Assay: biochemical

SMILES	IC50
NNC(=O)c1ccncc1 [isoniazid]	5.9 ± 0.2 µM
CC(=O)O[C@H]1CC(C)(C)C(=C=C/C(C)=C/C=C/C(C)=C/C=C/C=C(C)/C=C/C=C(\C)C(=O)C[C@@]23O[C@]2(C)C[C@@H](O)CC3(C)C)[C@](C)(O)C1 [fucoxanthin]	4.8 ± 0.4 µM
